Target: T1, AfCel6A (Aspergillus fumigatus, UniProt Q4WFK4)
T1 construct: gene cbhC; without predicted signal peptide (forward primer encodes QQTVW start) in pPICZαA, with N-terminal CBM1, His6 tag kept, secreted by Pichia pastoris X-33, about 65 kDa
T1 sequence (Q4WFK4 20-454): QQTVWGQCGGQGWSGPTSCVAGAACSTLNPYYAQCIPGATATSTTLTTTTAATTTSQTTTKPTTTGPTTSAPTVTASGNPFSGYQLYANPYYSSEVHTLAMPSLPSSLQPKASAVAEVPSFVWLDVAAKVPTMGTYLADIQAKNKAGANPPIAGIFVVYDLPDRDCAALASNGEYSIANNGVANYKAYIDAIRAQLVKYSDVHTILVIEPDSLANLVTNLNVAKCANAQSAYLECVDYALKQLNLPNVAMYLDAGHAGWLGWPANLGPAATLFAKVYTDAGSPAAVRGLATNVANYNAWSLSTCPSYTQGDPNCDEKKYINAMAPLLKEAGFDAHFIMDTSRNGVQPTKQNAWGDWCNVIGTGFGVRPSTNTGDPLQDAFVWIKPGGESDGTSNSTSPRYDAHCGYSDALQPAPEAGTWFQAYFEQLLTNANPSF
Assay: activity at rising sugar concentration ([…]), substrate 4-nitrophenyl β-D-cellobioside
Format: biochemical
Settings: product inhibition; the text also states 50% inhibition at 100 mM

## OC[C@H]1O[C@@H](O[C@H]2[C@H](O)[C@@H](O)C(O)O[C@@H]2CO)[C@H](O)[C@@H](O)[C@@H]1O (stereo partly shown) [cellobiose]
  IC50: > 100 mM

Reference: publication PMC7795096, “LPMO AfAA9_B and Cellobiohydrolase AfCel6A from A. fumigatus Boost Enzymatic Saccharification Activity of Cellulase Cocktail” (International Journal of Molecular Sciences, 2020)
